Data taken from EP0488224A2, “Fermentationproduct of a Verticimonosporium strain and feed additivs containing a linear peptide” (MITSUBISHI KASEI CORPORATION, priority 1990, dated 1992).
Read-outs that look alike come from different tables or passages of the source.

Columns and labels:
Caenorhabditis elegans = assay: Anti-nematode activity (1): growth and motility of nematodes in suspension; type: cell-based; parameters: key: 5 scales, - ±, +, ++ and +++; 5 scales, - ±, +, ++ and +++; 5 scales, - ±, +, ++ and +++; 5 scales, - ±, +, ++ and +++; 5 scales, - ±, +, ++ and +++; settings: 12.5 ppm, 20 °C, one week
Description: Anti-nematode activity of substance MBA090-18 was evaluated using Caenorhabditis elegans, a soil […] nematode.
Caenorhabditis elegans was suspended into sterilized water at the density of 20 - 30 heads/100 µl. To the suspension was added substance MBA090-18 at the concentration of 12.5 ppm. The mixture was incubated at 20 °C for one week while the growth and motility of nematodes being observed. […] The anti-nematode activity was evaluated and expressed according to the following 5 scales, - ±, +, ++ and +++.

[1] = Acute toxicity on oral administration; type: in vivo; settings: five male mouse
Description: The acute toxicity of substance MBA090-18 was determined using five male mouse on oral administration.

[2] = value from a literature; cited from earlier work
rumen fermentation = assay: Effect on feed efficiency in vivo (rumen content of a goat given feed additive); settings: 80 mg/day in feed, percentage to control (100)
Description: The effect of linear peptide compounds on the feed effeciency was evaluated in vivo using a ruminant animal.
A goat (a native species of Japan, 25 Kg) equipped with rumen fistula was used. As a feed additive, either of linear peptide compounds, MBA090-18 and gramicidin D, was administered to the animal. The rumen content was collected through the fistula and subjected to the assay in the same manner as described in the above Experiment 4 to obtain the total amount of VFAs, the production ratio of propionic acid to acetic acid (PA/AA) and the number of survival protozoas. In the table, values are shown as the percentage to the control values (100) obtained by keeping animal with the same feed ration to which neither of test compounds has been added.

rumen bacterial solution = assay: Effect on digestion of cellulose by rumen bacterial solution; parameters: species or system goat; settings: 5 µg/ml, 37 °C, 3 days; 0 µg/ml control 72
Description: The effect of substance MBA090-18 on the digestion of cellulose in the rumen was evaluated.
A goat (a native species of Japan, 20 Kg) equipped with rumen fistula was again used. A preparation of rumen bacterial solution was prepared by collecting the rumen content through the fistula, followed by a prompt centrifugation at 3000 rpm for 10 min to remove feed debris and protozoa.
To the 10 ml of the bacterial solution was added 50 ml of a basal medium described in the above Experiment 3 except that 0.4 g of cellulose powder and 6 mg of vitamin mixture are supplemented. The flask is then sealed anaerobically under CO₂ gas and incubated at 37 °C for 3 days. When the incubation finished, the cultured broth was assayed about the digestion of cellulose.

Row | Compound | Antinematode Activity growth (Caenorhabditis elegans) | Antinematode Activity mobility (Caenorhabditis elegans) | acute toxicity [1] | also measured
1 | CN[C@H]1C[C@@H](N)[C@H](O)[C@@H](O[C@@H]2O[C@H](CO)[C@H](O)[C@@H]3OC4(O[C@H]23)O[C@H]([C@@H](N)CO)[C@H](O)[C@H](O)[C@H]4O)[C@@H]1O (some centres unmarked) [Hygromycin B] | ++ | ± |  | 
2 | CC[C@@H](C(=O)[C@@H](C)[C@@H](O)[C@H](C)[C@@H]1O[C@@H]([C@@H](CC)C(=O)O)CC[C@@H]1C)[C@H]1O[C@]2(C=C[C@@H](O)[C@]3(CC[C@@](C)([C@H]4CC[C@](O)(CC)[C@H](C)O4)O3)O2)[C@H](C)C[C@@H]1C [Salinomysin] |  |  | 50 mg/kg | 
3 | Avermectin | +++ | +++ |  | acute toxicity [2]: 35 mg/kg
4 | Gramicidin D |  |  |  | total VFAs (%) (rumen fermentation): 103%; PA/AA (%) (rumen fermentation; propionic acid to acetic acid): 125%; Protozoa (%) (rumen fermentation; surviving protozoa): 86%
5 | Monensin |  |  | 43.8 mg/kg | Digestion Rate of Cellulose (%) (rumen bacterial solution): 10%
